Experimental data published in patent US8951566B2, “Process for preparing products comprising stabilised actives and compositions comprising same” (priority 2011, dated 2015).

Assay: Blood glucose of a diabetic patient switched from Metformin to sublingual Exenatide tablet
Assay type: in vivo, human
Settings: one diabetic patient; Exenatide 20 μg sublingual tablet once a day; FIGS. 1 and 2
Method: A diabetic patient who was undergoing treatment with Metformin switched to once a day treatment with a slow release 20 μg Exenatide sublingual tablet prepared in accordance with Example 2. The fasting glucose and plasma glucose levels were measured and are depicted in FIGS. 1 and 2.

## CN(C)C(=N)N=C(N)N [Metformin]
  blood glucose level / profile (fasting and 2 hours after a meal): erratic and difficult to control
